Drawing on patent publication US10683269B2 (MISSION THERAPEUTICS LIMITED, priority 2016, dated 2020), this text covers IC50 for 36 compounds.

Each structure is given as a SMILES string.

T1 sequence (Q93009 whole entry): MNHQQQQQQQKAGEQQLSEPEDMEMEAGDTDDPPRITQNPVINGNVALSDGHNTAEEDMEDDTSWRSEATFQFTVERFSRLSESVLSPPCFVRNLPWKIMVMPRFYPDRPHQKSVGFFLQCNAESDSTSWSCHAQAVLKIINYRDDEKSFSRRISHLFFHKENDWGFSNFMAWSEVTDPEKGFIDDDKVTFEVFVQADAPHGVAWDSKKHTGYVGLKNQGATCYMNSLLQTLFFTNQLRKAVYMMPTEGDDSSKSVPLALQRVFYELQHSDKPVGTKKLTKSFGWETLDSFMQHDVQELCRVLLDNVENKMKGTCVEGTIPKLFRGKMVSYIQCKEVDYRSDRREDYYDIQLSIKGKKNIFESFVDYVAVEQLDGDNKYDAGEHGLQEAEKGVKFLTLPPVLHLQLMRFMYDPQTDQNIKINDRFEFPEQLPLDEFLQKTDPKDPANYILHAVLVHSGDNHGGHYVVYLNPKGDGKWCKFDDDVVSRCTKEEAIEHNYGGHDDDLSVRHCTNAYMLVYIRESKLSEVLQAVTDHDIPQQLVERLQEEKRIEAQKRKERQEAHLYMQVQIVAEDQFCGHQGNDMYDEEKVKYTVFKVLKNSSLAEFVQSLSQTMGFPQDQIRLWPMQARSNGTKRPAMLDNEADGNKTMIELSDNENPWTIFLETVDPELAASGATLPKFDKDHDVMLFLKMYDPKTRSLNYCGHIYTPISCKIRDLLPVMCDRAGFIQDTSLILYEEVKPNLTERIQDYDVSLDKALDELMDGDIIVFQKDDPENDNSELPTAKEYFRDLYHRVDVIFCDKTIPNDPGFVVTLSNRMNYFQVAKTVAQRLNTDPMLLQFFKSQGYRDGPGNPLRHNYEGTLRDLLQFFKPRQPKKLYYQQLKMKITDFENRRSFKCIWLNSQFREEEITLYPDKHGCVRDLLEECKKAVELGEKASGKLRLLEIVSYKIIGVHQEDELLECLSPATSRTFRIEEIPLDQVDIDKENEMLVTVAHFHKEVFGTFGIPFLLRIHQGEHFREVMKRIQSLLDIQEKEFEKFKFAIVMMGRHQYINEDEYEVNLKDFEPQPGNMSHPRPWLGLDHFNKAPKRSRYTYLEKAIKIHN

The experiment concerns the target T1, USP7 (Homo sapiens, UniProt Q93009).
T1 construct: The USP7 construct was PCR amplified and cloned into a pFLAG-CMV-6a vector (Sigma-Aldrich) with an N-terminal FLAG tag; made in house; host or cells: HEK293T
Kind of experiment: USP7 biochemical IC50 assay (fluorescence polarisation, TAMRA labelled peptide linked to ubiquitin via an iso-peptide bond). The note with it: 30 min pre-incubation of enzyme and compound, read after 2 hr incubation at room temperature, read-out: IC50 range. Put shortly: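 Fluorescence polarisation at 540 nm excitation/590 nm emission, read immediately and after 2 hr at room temperature, following addition of 50 nM TAMRA-labelled iso-peptide ubiquitin substrate.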
On the technique in general: In fluorescence polarisation assays a small probe gives low polarisation when free and higher when bound to something large.
Usually IC50 stands for the concentration at which inhibition is half-maximal. Consider `CC(=O)Nc1cccc(-c2nc(NC(C)=O)nc3c2CN(C#N)C3)c1` [Example 108, N-(3-(2-acetamido-6-cyano-6,7-dihydro-5H-pyrrolo[3,4-d]pyrimidin-4-yl)phenyl)acetamide], for which the IC50 fell in the range of 1 to 10 µM.
Then `CC(=O)Nc1nc2c(c(-c3cccc(NS(C)(=O)=O)c3)n1)CN(C#N)C2` [Example 109, N-(6-cyano-4-(3-(methylsulfonamido)phenyl)-6,7-dihydro-5H-pyrrolo[3,4-d]pyrimidin-2-yl)acetamide], with 1 to 10 µM.
Consider `N#CN1Cc2nc(N[C@H]3CC[C@H](O)CC3)nc(-c3ccccc3)c2C1` [Example 110, 2-(((1R,4R)-4-hydroxycyclohexyl)amino)-4-phenyl-5H-pyrrolo[3,4-d]pyrimidine-6(7H)-carbonitrile], for which the half-inhibitory concentration (IC50) fell in the range of 1 to 10 µM.
On to `N#CN1Cc2nc(NCC3CCOCC3)nc(-c3ccccc3)c2C1` [Example 111, 4-phenyl-2-(((tetrahydro-2H-pyran-4-yl)methyl)amino)-5,7-dihydro-6H-pyrrolo[3,4-d]pyrimidine-6-carbonitrile], for which the IC50 was in the range of 1 to 10 µM.
`Cn1cc(Nc2nc3c(c(-c4ccccc4)n2)CN(C#N)C3)cn1` [Example 112, 2-((1-methyl-1H-pyrazol-4-yl)amino)-4-phenyl-5,7-dihydro-6H-pyrrolo[3,4-d]pyrimidine-6-carbonitrile]: the half-inhibitory concentration (IC50) fell in the range of 1 to 10 µM.
To `N#CN1Cc2nc(NCc3ncccn3)nc(-c3ccccc3)c2C1` [Example 113, 4-phenyl-2-((pyrimidin-2-ylmethyl)amino)-5,7-dihydro-6H-pyrrolo[3,4-d]pyrimidine-6-carbonitrile] belongs 1 to 10 µM.
Consider `N#CN1Cc2nc(NCCc3ccccn3)nc(-c3ccccc3)c2C1` [Example 114, 4-phenyl-2-((2-(pyridin-2-yl)ethyl)amino)-5,7-dihydro-6H-pyrrolo[3,4-d]pyrimidine-6-carbonitrile], for which the IC50 lay in the range of 1 to 10 µM.
To `N#CN1Cc2nc(NC3CCCc4ccccc43)nc(-c3ccccc3)c2C1` (stereo not drawn) [Example 115, 4-phenyl-2-((1,2,3,4-tetrahydronaphthalen-1-yl)amino)-5,7-dihydro-6H-pyrrolo[3,4-d]pyrimidine-6-carbonitrile] belongs 10 to 30 µM; to `N#CN1Cc2nc(Nc3ccccc3)nc(-c3ccccc3)c2C1` [Example 116, 4-phenyl-2-(phenylamino)-5,7-dihydro-6H-pyrrolo[3,4-d]pyrimidine-6-carbonitrile], 1 to 10 µM; to `N#CN1Cc2nc(NCc3ccccn3)nc(-c3ccccc3)c2C1` [Example 117, 4-phenyl-2-((pyridin-2-ylmethyl)amino)-5,7-dihydro-6H-pyrrolo[3,4-d]pyrimidine-6-carbonitrile], 1 to 10 µM.
Then `N#CN1Cc2nc(NCc3cccnc3)nc(-c3ccccc3)c2C1` [Example 118, 4-phenyl-2-((pyridin-3-ylmethyl)amino)-5,7-dihydro-6H-pyrrolo[3,4-d]pyrimidine-6-carbonitrile], with 1 to 10 µM; and `N#CN1Cc2nc(NCc3cncs3)nc(-c3ccccc3)c2C1` [Example 119, 4-phenyl-2-((thiazol-5-ylmethyl)amino)-5,7-dihydro-6H-pyrrolo[3,4-d]pyrimidine-6-carbonitrile], with 1 to 10 µM.
Take `N#CN1Cc2nc(NCCO)nc(-c3ccccc3)c2C1` [Example 120, 2-((2-hydroxyethyl)amino)-4-phenyl-5,7-dihydro-6H-pyrrolo[3,4-d]pyrimidine-6-carbonitrile]: the IC50 lay in the range of 1 to 10 µM.
Then `N#CN1Cc2nc(NCc3ccco3)nc(-c3ccccc3)c2C1` [Example 121, 2-((furan-2-ylmethyl)amino)-4-phenyl-5,7-dihydro-6H-pyrrolo[3,4-d]pyrimidine-6-carbonitrile], with 10 to 30 µM; and `N#CN1Cc2nc(NCCCn3ccnc3)nc(-c3ccccc3)c2C1` [Example 122, 2-((3-(1H-imidazol-1-yl)propyl)amino)-4-phenyl-5,7-dihydro-6H-pyrrolo[3,4-d]pyrimidine-6-carbonitrile], with 1 to 10 µM.
Then `CCNc1nc2c(c(-c3ccccc3C(N)=O)n1)CN(C#N)C2` [Example 123, 2-(6-cyano-2-(ethylamino)-6,7-dihydro-5H-pyrrolo[3,4-c]pyrimidin-4-yl)benzamide], with 10 to 30 µM; and `CN1CCOC(CNc2nc3c(c(-c4ccccc4)n2)CN(C#N)C3)C1` (stereo not drawn) [Example 124, 2-(((4-methylmorpholin-2-yl)methyl)amino)-4-phenyl-5,7-dihydro-6H-pyrrolo[3,4-d]pyrimidine-6-carbonitrile], with 1 to 10 µM.
Consider `CN1CCCC(CNc2nc3c(c(-c4ccccc4)n2)CN(C#N)C3)C1` (stereo not drawn) [Example 125, 2-(((1-methylpiperidin-3-yl)methyl)amino)-4-phenyl-5,7-dihydro-6H-pyrrolo[3,4-d]pyrimidine-6-carbonitrile], for which the IC50 fell in the range of 1 to 10 µM.
To `Cn1nccc1CNc1nc2c(c(-c3ccccc3)n1)CN(C#N)C2` [Example 126, 2-(((1-methyl-1H-pyrazol-5-yl)methyl)amino)-4-phenyl-5,7-dihydro-6H-pyrrolo[3,4-d]pyrimidine-6-carbonitrile] belongs 1 to 10 µM.
Then `CN1CCC(CNc2nc3c(c(-c4ccccc4)n2)CN(C#N)C3)C1` (stereo not drawn) [Example 127, 2-(((1-methylpyrrolidin-3-yl)methyl)amino)-4-phenyl-5,7-dihydro-6H-pyrrolo[3,4-d]pyrimidine-6-carbonitrile], with 1 to 10 µM.
For `CC(=O)Nc1nc2c(c(N3CCc4ccccc4C3)n1)CN(C#N)C2` [Example 128, N-(6-cyano-4-(3,4-dihydroisoquinolin-2(1H)-yl)-6,7-dihydro-5H-pyrrolo[3,4-d]pyrimidin-2-yl)acetamide], the IC50 lay in the range of 1 to 10 µM.
In the case of `N#CN1Cc2nc(NC(=O)C3CNC(=O)C3)nc(-c3ccccc3)c2C1` (stereo not drawn) [Example 129, N-(6-cyano-4-phenyl-6,7-dihydro-5H-pyrrolo[3,4-c]pyrimidin-2-yl)-5-oxopyrrolidine-3-carboxamide], the IC50 was 10 to 30 µM.
To `COc1ccc(-c2nc3c(c(N4CCCC4)n2)CN(C#N)C3)cc1` [Example 130, 2-(4-methoxyphenyl)-4-(pyrrolidin-1-yl)-5,7-dihydro-6H-pyrrolo[3,4-c]pyrimidine-6-carbonitrile] belongs 10 to 30 µM; to `N#CN1Cc2nc(-c3ccccc3)nc(N3CCCC3C(N)=O)c2C1` (stereo not drawn) [Example 131, 1-(6-cyano-2-phenyl-6,7-dihydro-5H-pyrrolo[3,4-d]pyrimidin-4-yl)pyrrolidine-2-carboxamide], 10 to 30 µM; to `N#CN1Cc2nc(-c3ccccc3)nc(NCC(N)=O)c2C1` [Example 132, 2-((6-cyano-2-phenyl-6,7-dihydro-5H-pyrrolo[3,4-d]pyrimidin-4-yl)amino)acetamide], 10 to 30 µM.
To `CNC(=O)C1CCCN1c1nc(-c2ccccc2)nc2c1CN(C#N)C2` (stereo not drawn) [Example 133, 1-(6-cyano-2-phenyl-6,7-dihydro-5H-pyrrolo[3,4-d]pyrimidin-4-yl)-N-methylpyrrolidine-2-carboxamide] belongs 10 to 30 µM; to `Cc1[nH]ncc1-c1nc2c(c(N3CCCC3)n1)CN(C#N)C2` [Example 134, 2-(5-methyl-1H-pyrazol-4-yl)-4-(pyrrolidin-1-yl)-5,7-dihydro-6H-pyrrolo[3,4-d]pyrimidine-6-carbonitrile], 10 to 30 µM.
For `COc1ccccc1-c1nc2c(c(N3CCCC3)n1)CN(C#N)C2` [Example 135, 2-(2-methoxyphenyl)-4-(pyrrolidin-1-yl)-5,7-dihydro-6H-pyrrolo[3,4-d]pyrimidine-6-carbonitrile], the IC50 is 1 to 10 µM.
Then `COc1cccc(-c2nc3c(c(N4CCCC4)n2)CN(C#N)C3)c1` [Example 136, 2-(3-methoxyphenyl)-4-(pyrrolidin-1-yl)-5,7-dihydro-6H-pyrrolo[3,4-d]pyrimidine-6-carbonitrile], with 30 to 100 µM.
Then `N#CN1Cc2nc(-c3cccnc3)nc(N3CCCC3)c2C1` [Example 137, 2-(pyridin-3-yl)-4-(pyrrolidin-1-yl)-5,7-dihydro-6H-pyrrolo[3,4-d]pyrimidine-6-carbonitrile], with 1 to 10 µM; and `N#CN1Cc2nc(-c3ccccc3C(N)=O)nc(N3CCc4ccccc4C3)c2C1` [Example 138, 2-(6-cyano-4-(3,4-dihydroisoquinolin-2(1H)-yl)-6,7-dihydro-5H-pyrrolo[3,4-d]pyrimidin-2-yl)benzamide], with 1 to 10 µM.
As to `Cc1[nH]ncc1-c1nc2c(c(N3CCc4ccccc4C3)n1)CN(C#N)C2` [Example 139, 4-(3,4-dihydroisoquinolin-2(1H)-yl)-2-(5-methyl-1H-pyrazol-4-yl)-5,7-dihydro-6H-pyrrolo[3,4-d]pyrimidine-6-carbonitrile], the 50% inhibitory concentration (IC50) fell in the range of 1 to 10 µM.
To `COc1ccccc1-c1nc2c(c(N3CCc4ccccc4C3)n1)CN(C#N)C2` [Example 140, 4-(3,4-dihydroisoquinolin-2(1H)-yl)-2-(2-methoxyphenyl)-5,7-dihydro-6H-pyrrolo[3,4-d]pyrimidine-6-carbonitrile] belongs 1 to 10 µM; to `N#Cc1cccc(-c2nc3c(c(N4CCc5ccccc5C4)n2)CN(C#N)C3)c1` [Example 141, 2-(3-cyanophenyl)-4-(3,4-dihydroisoquinolin-2(1H)-yl)-5,7-dihydro-6H-pyrrolo[3,4-d]pyrimidine-6-carbonitrile], 1 to 10 µM; to `Cn1cc(-c2nc3c(c(N4CCc5ccccc5C4)n2)CN(C#N)C3)cn1` [Example 142, 4-(3,4-dihydroisoquinolin-2(1H)-yl)-2-(1-methyl-1H-pyrazol-4-yl)-5,7-dihydro-6H-pyrrolo[3,4-d]pyrimidine-6-carbonitrile], 1 to 10 µM.
To `Cc1ccccc1-c1nc2c(c(N3CCCC3C(N)=O)n1)CN(C#N)C2` (stereo not drawn) [Example 143, 1-(6-cyano-2-(o-tolyl)-6,7-dihydro-5H-pyrrolo[3,4-d]pyrimidin-4-yl)pyrrolidine-2-carboxamide] belongs 10 to 30 µM.
